Assay results taken from US20210300943A1, “OGA INHIBITOR COMPOUNDS” (Janssen Pharmaceutica NV, priority 2018, published 2021).

Legend:
[1] = biological target: T1, recombinant human Meningioma Expressed Antigen 5 (MGEA5), also referred to as O-GlcNAcase (OGA) (Homo sapiens, UniProt O60502); test: OGA biochemical assay (inhibition of FM-GlcNAc hydrolysis, fluorescence); conditions: for Emax / Enzymatic Emax (%): maximal effect; for Emax: read-out: Enzymatic Emax (%); for IC50: read-out: Enzymatic hOGA, pIC50 (converted)
T1 construct: Full length OGA enzyme was purchased at OnGene (cat #TP322411); purchased OnGene (so in the source)
T1 sequence (O60502 1-916): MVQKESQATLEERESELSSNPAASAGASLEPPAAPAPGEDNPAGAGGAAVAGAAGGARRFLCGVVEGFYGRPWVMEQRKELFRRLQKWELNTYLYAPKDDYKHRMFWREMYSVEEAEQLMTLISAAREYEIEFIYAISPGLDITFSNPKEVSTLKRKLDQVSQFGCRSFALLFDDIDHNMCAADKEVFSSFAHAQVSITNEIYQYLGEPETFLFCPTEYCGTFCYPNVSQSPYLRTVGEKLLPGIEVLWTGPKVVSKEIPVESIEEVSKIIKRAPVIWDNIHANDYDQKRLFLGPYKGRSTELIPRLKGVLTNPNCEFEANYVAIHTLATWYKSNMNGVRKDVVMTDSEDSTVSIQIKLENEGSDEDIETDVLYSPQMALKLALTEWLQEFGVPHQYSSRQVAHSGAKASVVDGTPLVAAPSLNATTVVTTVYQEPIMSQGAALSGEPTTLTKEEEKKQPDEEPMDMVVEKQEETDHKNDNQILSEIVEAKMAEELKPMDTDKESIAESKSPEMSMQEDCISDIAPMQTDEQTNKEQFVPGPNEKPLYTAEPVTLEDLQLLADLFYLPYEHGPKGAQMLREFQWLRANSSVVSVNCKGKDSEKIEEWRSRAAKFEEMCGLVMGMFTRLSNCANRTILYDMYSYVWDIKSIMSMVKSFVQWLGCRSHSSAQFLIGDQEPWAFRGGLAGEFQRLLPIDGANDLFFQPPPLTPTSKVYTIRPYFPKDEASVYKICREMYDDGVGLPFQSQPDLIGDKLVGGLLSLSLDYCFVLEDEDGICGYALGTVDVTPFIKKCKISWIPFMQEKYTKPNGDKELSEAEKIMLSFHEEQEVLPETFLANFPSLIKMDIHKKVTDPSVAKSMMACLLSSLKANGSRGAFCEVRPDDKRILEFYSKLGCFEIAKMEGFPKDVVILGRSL
Source text: The assay is based on the inhibition of the hydrolysis of fluorescein mono-β-D-N-Acetyl-Glucosamine (FM-GlcNAc) (Mariappa et al. 2015, Biochem J 470:255) by the recombinant human Meningioma Expressed Antigen 5 (MGEA5), also referred to as O-GlcNAcase (OGA). The hydrolysis FM-GlcNAc (Marker Gene technologies, cat #M1485) results in the formation of β-D-N-glucosamineacetate and fluorescein. The fluorescence of the latter can be measured at excitation wavelength 485 nm and emission wavelength 538 nm. An increase in enzyme activity results in an increase in fluorescence signal. Full length OGA enzyme was purchased at OnGene (cat #TP322411). The enzyme was stored in 25 mM Tris.HCl, pH 7.3, 100 mM glycine, 10% glycerol at −20° C. Thiamet G and GlcNAcStatin were tested as reference compounds (Yuzwa et al. 2008 Nature Chemical Biology 4:483; Yuzwa et al. 2012 Nature Chemical Biology 8:393). The assay was performed in 200 mM Citrate/phosphate buffer supplemented with 0.005% Tween-20. 35.6 g Na2HPO42H2O (Sigma, #C0759) were dissolved in 1 L water to obtain a 200 mM solution. 19.2 g citric acid (Merck, #1.06580) was dissolved in 1 L water to obtain a 100 mM solution. pH of the sodiumphosphate solution was adjusted with the citric acid solution to 7.2. The buffer to stop the reaction consists of a 500 mM Carbonate buffer, pH 11.0. 734 mg FM-GlcNAc were dissolved in 5.48 mL DMSO to obtain a 250 mM solution and was stored at −20° C. OGA was used at a 2 nM concentration and FM-GlcNAc at a 100 uM final concentration. Dilutions were prepared in assay buffer.
50 nl of a compound dissolved in DMSO was dispensed on Black Proxiplate TM 384 Plus Assay plates (Perkin Elmer, #6008269) and 3 μl fl-OGA enzyme mix added subsequently. Plates were pre-incubated for 60 min at room temperature and then 2 μl FM-GlcNAc substrate mix added. […] Plates were briefly centrifuged for 1 min at 1000 rpm and incubate at room temperature for 6 h. To stop the reaction 5 μl STOP buffer were added and plates centrifuge again 1 min at 1000 rpm. Fluorescence was quantified in the Thermo Scientific Fluoroskan Ascent or the PerkinElmer EnVision with excitation wavelength 485 nm and emission wavelength 538 nm.
For analysis a best-fit curve is fitted by a minimum sum of squares method. From this an IC50 value and Hill coefficient was obtained. High control (no inhibitor) and low control (saturating concentrations of standard inhibitor) were used to define the minimum and maximum values.

OGA = biological target: T2, OGA (Homo sapiens, UniProt O60502); test: OGA cellular assay (ICC detection of O-GlcNAcylated proteins in HEK293 cells inducible for P301L mutant human Tau); type: cell-based; conditions: for Emax: HEK293, HEK293 cells inducible for P301L mutant human Tau; for Emax / Cellular Emax (%): maximal effect, Thiamet G 200 uM as maximum; for EC50 / Cellular Emax (%): HEK293 cells inducible for P301L mutant human Tau; for EC50: 6 hours incubation, read-out: Cellular hOGA, pEC50 (converted)
T2 construct: endogenous in cells; host or cells: HEK293 cells inducible for P301L mutant human Tau (2N4R)
T2 sequence (O60502 1-916): T1 sequence (O60502 1-916)
Procedure: HEK293 cells inducible for P301L mutant human Tau (isoform 2N4R) were established at Janssen. Thiamet-G was used for both plate validation (high control) and as reference compound (reference EC50 assay validation). OGA inhibition is evaluated through the immunocytochemical (ICC) detection of O-GlcNAcylated proteins by the use of a monoclonal antibody (CTD110.6; Cell Signaling, #9875) detecting 0-GlcNAcylated residues as previously described (Dorfmueller et al. 2010 Chemistry & biology, 17:1250). Inhibition of OGA will result in an increase of O-GlcNAcylated protein levels resulting in an increased signal in the experiment. Cell nuclei are stained with Hoechst to give a cell culture quality control and a rough estimate of immediate compounds toxicity, if any. ICC pictures are imaged with a Perkin Elmer Opera Phenix plate microscope and quantified with the provided software Perkin Elmer Harmony 4.1.
Cells were propagated in DMEM high Glucose (Sigma, #D5796) following standard procedures. 2 days before the cell assay cells are split, counted and seeded in Poly-D-Lysine (PDL) coated 96-wells (Greiner, #655946) plate at a cell density of 12,000 cells per cm^2 (4,000 cells per well) in 100 μl of Assay Medium (Low Glucose medium is used to reduce basal levels of GlcNAcylation) (Park et al. 2014 The Journal of biological chemistry 289:13519). At the day of compound test medium from assay plates was removed and replenished with 90 μl of fresh Assay Medium. 10 μl of compounds at a 10 fold final concentration were added to the wells. Plates were centrifuged shortly before incubation in the cell incubator for 6 hours. DMSO concentration was set to 0.2%. Medium is discarded by applying vacuum. For staining of cells medium was removed and cells washed once with 100 μl D-PBS (Sigma, #D8537). From next step onwards unless other stated assay volume was always 50 μl and incubation was performed without agitation and at room temperature. Cells were fixed in 50 μl of a 4% paraformaldehyde (PFA, Alpha aesar, #043368) PBS solution for 15 minutes at room temperature. […] Before analysis samples were washed 2 times manually for 5 minutes in ICC base buffer.
Imaging is performed using Perkin Elmer Phenix Opera using a water 20× objective and recording 9 fields per well. Intensity readout at 488 nm is used as a measure of O-GlcNAcylation level of total proteins in wells. To assess potential toxicity of compounds nuclei were counted using the Hoechst staining. IC50-values are calculated using parametric non-linear regression model fitting. As a maximum inhibition Thiamet G at a 200 uM concentration is present on each plate. In addition, a concentration response of Thiamet G is calculated on each plate.

Row | SMILES | Emax [1] [%] | IC50 [1] [nM] | Emax (OGA) [%] | EC50 (OGA) [nM] | Enzymatic Emax (%) [1] [%] | Cellular Emax (%) (OGA)
1 | COc1cc(NC[C@H]2CCCN(C(C)c3ccc4c(n3)OCCO4)C2)cc(C)n1 (single isomer, unassigned) [Product 26] | – | 2.51 | 85 | 5.01 | 101 | –
2 | Cc1cc(NCC2CCCN(C(C)c3ccc4c(n3)OCCO4)C2)cc(C(F)(F)F)n1 (single isomer, unassigned) [Product 33] | 102 | 2.51 | 83 | 31.6 | – | –
3 | Cc1cc(C[C@H]2CCCN(C(C)c3cc4c(cc3F)OCCO4)C2)cc(C)n1 (single isomer, unassigned) [Product 42] | 99 | 2 | 86 | 6.31 | – | –
4 | Cc1cc(C[C@H]2CCCN(C(C)c3cnc4c(c3)OCCN4)C2)cc(C)n1 (single isomer, unassigned) [Product 52] | – | 1.26 | 92 | 6.31 | 104 | –
5 | Cc1cc(C[C@H]2CCCN(C(C)c3cnc4c(c3)OCCO4)C2)cc(C)n1 (single isomer, unassigned) [Product 132] | 103 | 5.01 | 77 | 79.4 | – | –
6 | Cc1cc([C@H]2CCCN(C(C)c3ccc4c(n3)OCCO4)C2)cc(C)n1 (single isomer, unassigned) [Product 149] | 100 | 10 | 93 | 31.6 | – | –
7 | Cc1cc([C@@H]2CCCN(C(C)c3ccc4c(n3)OCCO4)C2)cc(C)n1 (single isomer, unassigned) [Product 150] | 92 | 2000 | 3 | > 1000 | – | –
8 | Cc1cc(OC[C@H]2CCCN(C(C)c3nc4c(cc3F)OCCO4)C2)cc(C)n1 (single isomer, unassigned) [Product 156] | – | 251 | – | 316 | 97 | 55
9 | Cc1cc([C@H]2CCCN([C@H](C)c3ccc4c(n3)OCCO4)C2)cc(C)n1 (single isomer, unassigned) [Product 158] | 102 | 7.94 | 89 | 39.8 | – | –
10 | Cc1cc([C@H]2CCCN([C@@H](C)c3ccc4c(n3)OCCO4)C2)cc(C)n1 (single isomer, unassigned) [Product 159] | 91 | 1260 | 0 | > 1000 | – | –
11 | Cc1cc([C@@H]2CCCN([C@H](C)c3ccc4c(n3)OCCO4)C2)cc(C)n1 (single isomer, unassigned) [Product 160] | 89 | 2000 | 5 | > 1000 | – | –
12 | Cc1cc([C@@H]2CCCN([C@@H](C)c3ccc4c(n3)OCCO4)C2)cc(C)n1 (single isomer, unassigned) [Product 161] | 79 | 3160 | -4 | > 1000 | – | –

Second part, the molecule after the results:

Row | Emax [1] [%] | IC50 [1] [nM] | Emax (OGA) [%] | EC50 (OGA) [nM] | Enzymatic Emax (%) [1] [%] | Cellular Emax (%) (OGA) | SMILES
13 | 37 | > 10000 | -8 | > 1000 | – | – | Cc1cc(OC[C@@H]2CCCN([C@@H](C)c3ccc4c(n3)OCCO4)C2)cc(C)n1 (relative stereo) [Product 108]
14 | 95 | 251 | 37 | > 1000 | – | – | Cc1cc(OC[C@@H]2CCCN([C@H](C)c3ccc4c(n3)OCCO4)C2)cc(C)n1 (relative stereo) [Product 109]
15 | 101 | 3.16 | 90 | 15.8 | – | – | Cc1cc(C[C@H]2CCCN([C@@H](C)c3ccc4c(n3)OCCO4)C2)cc(C)n1 (single isomer, unassigned) [Product 46]
16 | 98 | 7.94 | 88 | 20 | – | – | Cc1cc(OC[C@H]2CCCN(C(C)c3ccc4c(n3)OCCO4)C2)cc(C)n1 (single isomer, unassigned) [Product 139]
17 | 72 | 3980 | 2 | > 1000 | – | – | Cc1cc(OC[C@H]2CCCN([C@@H](C)c3ccc4c(n3)OCCO4)C2)cc(C)n1 (single isomer, unassigned) [Product 140]
18 | 93 | 794 | – | > 1000 | – | 3 | Cc1cc(OC[C@H]2CCCN(C(C)c3ccc4c(n3)OCCO4)C2)nc(C)n1 (single isomer, unassigned) [Product 162]
19 | – | 7.94 | – | 45.7 | 100 | 82 | Cc1cc(OC[C@H]2CCCN(C(C)c3ccc4c(n3)OCCO4)C2)nc(C)n1 (single isomer, unassigned) [Product 163]
